The molecules below were run against T1, GLP-1 Receptor (Homo sapiens, UniProt P43220) (assay: GLP-1R agonist cAMP stimulation assay (HEK293/GLP1R/CRE-LUC cells, Cisbio cAMP dynamic 2 kit)). Details: HEK293/CRE-Luc cell line stably expressing the GLP-1 Receptor; 1000 cells/well; 30 min at 37° C.; 0.5 mM IBMX, 0.1% BSA; read-out: GLP1R cAMP Stimulation DR: EC50.
T1 construct: host or cells: HEK293/GLP1R/CRE-LUC (HEK293/CRE-Luc stably expressing the GLP-1 receptor)
Format: cell-based
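Also: compounds tested in half-log serial dilution, cAMP detected with cAMP-d2 and anti-cAMP cryptate antibody reagents after 1 h at room temperature.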

T1 sequence (P43220 24-463, species assumed): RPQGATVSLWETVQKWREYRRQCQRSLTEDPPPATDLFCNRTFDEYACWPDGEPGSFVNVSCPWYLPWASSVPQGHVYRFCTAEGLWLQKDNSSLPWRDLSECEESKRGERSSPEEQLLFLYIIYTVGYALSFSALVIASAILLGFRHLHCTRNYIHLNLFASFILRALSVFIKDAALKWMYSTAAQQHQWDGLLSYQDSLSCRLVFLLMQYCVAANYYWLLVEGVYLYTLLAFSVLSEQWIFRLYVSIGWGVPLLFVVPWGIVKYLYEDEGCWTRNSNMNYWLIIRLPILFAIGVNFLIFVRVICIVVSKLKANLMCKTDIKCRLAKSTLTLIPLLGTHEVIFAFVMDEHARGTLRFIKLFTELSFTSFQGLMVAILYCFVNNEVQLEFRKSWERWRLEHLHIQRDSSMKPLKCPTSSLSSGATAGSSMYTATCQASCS

Structure (SMILES) | EC50 [nM]
Cn1c(C2CCC(C(=O)O)C2)cnc1CN1CCC(c2cccc3c2OC(C)(c2ccc(Cl)cc2F)O3)CC1 (centres unmarked) [Compound 247, 3-(2-((4-(2-(4-chloro-2-fluorophenyl)-2-methylbenzo[d][1,3]dioxol-4-yl)piperidin-1-yl)methyl)-1-methyl-1H-imidazol-5-yl)cyclopentane-1-carboxylic acid] | 310
O=C(O)C1CC1c1cnc(CN2CCC(c3cccc4c3OC[C@@H](c3ccc(Cl)cc3)O4)CC2)n1C[C@@H]1CCO1 (stereo partly drawn) [Compound 248, 2-(2-((4-((R)-2-(4-chlorophenyl)-2,3-dihydrobenzo[b][1,4]dioxin-5-yl)piperidin-1-yl)methyl)-1-(((S)-oxetan-2-yl)methyl)-1H-imidazol-5-yl)cyclopropane-1-carboxylic acid] | 35
COCCn1c(Cc2noc(=O)[nH]2)cnc1CN1CCC(c2cccc3c2OC(C)(c2ccc(Cl)cc2F)O3)CC1 (centres unmarked) [Compound 251, 3-((2-((4-(2-(4-chloro-2-fluorophenyl)-2-methylbenzo[d][1,3]dioxol-4-yl)piperidin-1-yl)methyl)-1-(2-methoxyethyl)-1H-imidazol-5-yl)methyl)-1,2,4-oxadiazol-5(4H)-one] | 13
Cc1cc(-c2noc(=O)[nH]2)cnc1CN1CCC(c2cccc3c2OC(C)(c2ccc(Cl)cc2F)O3)CC1 (centres unmarked) [Compound 252, 3-(6-((4-(2-(4-chloro-2-fluorophenyl)-2-methylbenzo[d][1,3]dioxol-4-yl)piperidin-1-yl)methyl)-5-methylpyridin-3-yl)-1,2,4-oxadiazol-5(4H)-one] | 11
Cc1cc(-c2nnn[nH]2)cnc1CN1CCC(c2cccc3c2OC(C)(c2ccc(Cl)cc2F)O3)CC1 (centres unmarked) [Compound 253, 2-({4-[2-(4-chloro-2-fluorophenyl)-2-methyl-2H-1,3-benzodioxol-4-yl]piperidin-1-yl}methyl)-3-methyl-5-(1H-1,2,3,4-tetrazol-5-yl)pyridine] | 4
Cc1cc(-c2n[nH]c(=O)o2)cnc1CN1CCC(c2cccc3c2OC(C)(c2ccc(Cl)cc2F)O3)CC1 (centres unmarked) [Compound 254, 5-[6-({4-[2-(4-chloro-2-fluorophenyl)-2-methyl-2H-1,3-benzodioxol-4-yl]piperidin-1-yl}methyl)-5-methylpyridin-3-yl]-2,3-dihydro-1,3,4-oxadiazol-2-one] | 10
Cc1cc(-c2nnc(C(F)(F)F)[nH]2)cnc1CN1CCC(c2cccc3c2OC(C)(c2ccc(Cl)cc2F)O3)CC1 (centres unmarked) [Compound 255, 2-({4-[2-(4-chloro-2-fluorophenyl)-2-methyl-2H-1,3-benzodioxol-4-yl]piperidin-1-yl}methyl)-3-methyl-5-[5-(trifluoromethyl)-4H-1,2,4-triazol-3-yl]pyridine] | 8.3
COCCc1cc(-c2nnn[nH]2)cnc1CN1CCC(c2cccc3c2OC(C)(c2ccc(Cl)cc2F)O3)CC1 (centres unmarked) [Compound 256, 2-({4-[2-(4-chloro-2-fluorophenyl)-2-methyl-2H-1,3-benzodioxol-4-yl]piperidin-1-yl}methyl)-3-(2-methoxyethyl)-5-(1H-1,2,3,4-tetrazol-5-yl)pyridine] | 5
Cc1cc(-c2nnc(C(F)F)[nH]2)cnc1CN1CCC(c2cccc3c2OC(C)(c2ccc(Cl)cc2F)O3)CC1 (centres unmarked) [Compound 257, 2-({4-[2-(4-chloro-2-fluorophenyl)-2-methyl-2H-1,3-benzodioxol-4-yl]piperidin-1-yl}methyl)-5-[5-(difluoromethyl)-4H-1,2,4-triazol-3-yl]-3-methylpyridine] | 14
COCCc1cc(-c2nnc(C(F)(F)F)[nH]2)cnc1CN1CCC(c2cccc3c2OC(C)(c2ccc(Cl)cc2)O3)CC1 (centres unmarked) [Compound 261, 2-({4-[2-(4-chlorophenyl)-2-methyl-2H-1,3-benzodioxol-4-yl]piperidin-1-yl}methyl)-3-(2-methoxyethyl)-5-[5-(trifluoromethyl)-4H-1,2,4-triazol-3-yl]pyridine] | 5.3
Cc1cc(-c2nnc(C(F)(F)F)[nH]2)cnc1CN1CCC(c2cccc3c2OC(C)(c2ccc(F)cc2)O3)CC1 (centres unmarked) [Compound 263, 2-({4-[2-(4-fluorophenyl)-2-methyl-2H-1,3-benzodioxol-4-yl]piperidin-1-yl}methyl)-3-methyl-5-[5-(trifluoromethyl)-4H-1,2,4-triazol-3-yl]pyridine] | 6.8
Cc1cc(-c2nnc(C(F)(F)F)[nH]2)cnc1CN1CCC(c2cccc3c2OC(C)(c2ccc(Cl)cn2)O3)CC1 (centres unmarked) [Compound 264, 2-({4-[2-(5-chloropyridin-2-yl)-2-methyl-2H-1,3-benzodioxol-4-yl]piperidin-1-yl}methyl)-3-methyl-5-[5-(trifluoromethyl)-4H-1,2,4-triazol-3-yl]pyridine] | 15
Cc1cc(-c2nnc(C(F)(F)F)[nH]2)cnc1CN1CCC(c2cccc3c2OC(C)(c2ccc(Cl)cc2)O3)CC1 (centres unmarked) [Compound 265, 2-({4-[2-(4-chlorophenyl)-2-methyl-2H-1,3-benzodioxol-4-yl]piperidin-1-yl}methyl)-3-methyl-5-[5-(trifluoromethyl)-4H-1,2,4-triazol-3-yl]pyridine] | 4.5

These reach a lower EC50. Values come first.

EC50 [nM] | Structure (SMILES)
3.7 | O=c1[nH]c(-c2cnc(CN3CCC(c4cccc(OCc5ccc(Cl)cc5F)n4)CC3)n2C[C@@H]2CCO2)no1 [Compound 249a, (S)-3-(2-((4-(6-((4-chloro-2-fluorobenzyl)oxy)pyridin-2-yl)piperidin-1-yl)methyl)-1-(oxetan-2-ylmethyl)-1H-imidazol-5-yl)-1,2,4-oxadiazol-5(4H)-one]
3 | Cc1cc(-c2nnc(C(F)(F)F)[nH]2)cnc1CN1CCC(c2cccc3c2OC(C)(c2ccc(F)cc2F)O3)CC1 (centres unmarked) [Compound 262, 2-({4-[2-(2,4-difluorophenyl)-2-methyl-2H-1,3-benzodioxol-4-yl]piperidin-1-yl}methyl)-3-methyl-5-[5-(trifluoromethyl)-4H-1,2,4-triazol-3-yl]pyridine]
2.3 | COCCc1cc(-c2nnc(C(F)(F)F)[nH]2)cnc1CN1CCC(c2cccc3c2O[C@@](C)(c2ccc(C#N)cc2F)O3)CC1 [Compound 260, 3-fluoro-4-[(2S)-4-(1-{[3-(2-methoxyethyl)-5-[5-(trifluoromethyl)-4H-1,2,4-triazol-3-yl]pyridin-2-yl]methyl}piperidin-4-yl)-2-methyl-2H-1,3-benzodioxol-2-yl]benzonitrile]
1.6 | Cn1c(-c2cc(=O)[nH]o2)cnc1CN1CCC(c2cccc(OCc3ccc(Cl)cc3F)n2)CC1 [Compound 250, 5-(2-((4-(6-((4-chloro-2-fluorobenzyl)oxy)pyridin-2-yl)piperidin-1-yl)methyl)-1-methyl-1H-imidazol-5-yl)isoxazol-3(2H)-one]
0.87 | COc1cccc(Cn2c(CCC(=O)O)cnc2CN2CCC(c3cccc4c3OC(C)(c3ccc(Cl)cc3F)O4)CC2)c1 (centres unmarked) [Compound 243, 3-(2-((4-(2-(4-chloro-2-fluorophenyl)-2-methylbenzo[d][1,3]dioxol-4-yl)piperidin-1-yl)methyl)-1-(3-methoxybenzyl)-1H-imidazol-5-yl)propanoic acid]
0.63 | CC1(c2ccc(Cl)cc2F)Oc2cccc(C3CCN(Cc4ncc(CCC(=O)O)n4Cc4ccccc4)CC3)c2O1 (centres unmarked) [Compound 242, 3-(1-benzyl-2-((4-(2-(4-chloro-2-fluorophenyl)-2-methylbenzo[d][1,3]dioxol-4-yl)piperidin-1-yl)methyl)-1H-imidazol-5-yl)propanoic acid]
0.53 | COCCc1cc(-c2nnc(C(F)(F)F)[nH]2)cnc1CN1CCC(c2cccc3c2O[C@@](C)(c2ccc(Cl)cc2F)O3)CC1 [Compound 259, 2-({4-[(2S)-2-(4-chloro-2-fluorophenyl)-2-methyl-2H-1,3-benzodioxol-4-yl]piperidin-1-yl}methyl)-3-(2-methoxyethyl)-5-[5-(trifluoromethyl)-4H-1,2,4-triazol-3-yl]pyridine]
0.38 | CC1(c2ccc(Cl)cc2F)Oc2cccc(C3CCN(Cc4ncc(CCC(=O)O)n4CC4CCS4(=O)=O)CC3)c2O1 (centres unmarked) [Compound 240, 3-(2-((4-(2-(4-chloro-2-fluorophenyl)-2-methylbenzo[d][1,3]dioxol-4-yl)piperidin-1-yl)methyl)-1-((1,1-dioxidothietan-2-yl)methyl)-1H-imidazol-5-yl)propanoic acid]
0.38 | CCn1cncc1Cn1c(CCC(=O)O)nnc1CN1CCC(c2cccc3c2OC[C@@H](c2ccc(Cl)cc2)O3)CC1 [Compound 246, (R)-3-(5-((4-(2-(4-chlorophenyl)-2,3-dihydrobenzo [b][1,4]dioxin-5-yl)piperidin-1-yl)methyl)-4-((1-ethyl-1H-imidazol-5-yl)methyl)-4H-1,2,4-triazol-3-yl)propanoic acid]
0.21 | Cc1ncoc1Cn1c(CCC(=O)O)cnc1CN1CCC(c2cccc3c2OC(C)(c2ccc(Cl)cc2F)O3)CC1 (centres unmarked) [Compound 241, 3-(2-((4-(2-(4-chloro-2-fluorophenyl)-2-methylbenzo[d][1,3]dioxol-4-yl)piperidin-1-yl)methyl)-1-((4-methyloxazol-5-yl)methyl)-1H-imidazol-5-yl)propanoic acid]
0.15 | CCn1cncc1Cn1c(CCC(=O)O)cnc1CN1CCC(c2cccc3c2OC[C@@H](c2ccc(Cl)cc2)O3)CC1 [Compound 245, (R)-3-(2-((4-(2-(4-chlorophenyl)-2,3-dihydrobenzo [b][1,4]dioxin-5-yl)piperidin-1-yl)methyl)-1-((1-ethyl-1H-imidazol-5-yl)methyl)-1H-imidazol-5-yl)propanoic acid]
0.023 | CCn1cncc1Cn1c(CCC(=O)O)cnc1CN1CCC(c2cccc(OCc3ccc(Cl)cc3F)n2)CC1 [Compound 244, 3-(2-((4-(6-((4-chloro-2-fluorobenzyl)oxy)pyridin-2-yl)piperidin-1-yl)methyl)-1-((1-ethyl-1H-imidazol-5-yl)methyl)-1H-imidazol-5-yl)propanoic acid]
0.0061 | C[C@]1(c2ccc(Cl)cc2F)Oc2cccc(C3CCN(Cc4ncc(-c5nnc(C(F)(F)F)[nH]5)cc4CC4(C#N)CC4)CC3)c2O1 [Compound 258, 1-{[2-({4-[(2S)-2-(4-chloro-2-fluorophenyl)-2-methyl-2H-1,3-benzodioxol-4-yl]piperidin-1-yl}methyl)-5-[5-(trifluoromethyl)-4H-1,2,4-triazol-3-yl]pyridin-3-yl]methyl}cyclopropane-1-carbonitrile]

— patent US11897851B2, “Heterocyclic GLP-1 agonists” (Gasherbrum Bio, Inc., priority 2021, dated 2024)
